Source: patent US7189505B2, “Methods of assessing HIV integrase inhibitor therapy” (Tibotec BVBA, priority 2001, dated 2007)

What was measured:
Format in all cases: cell-based, HIV-1
[1] = test system: recombinant virus generated from HXB2D site-directed mutant virus, integrase T66I/S153Y mutations; assay: Antiviral experiment with recombinant virus from site-directed mutant virus, T66I/S153Y; conditions: versus wild type, MT4-LTR-EGFP cells
Procedure: (§1) The integrase encoding sequence was amplified from either wildtype HIV-1 (IIIB) or NL4.3 virus, or HXB2D site-directed mutant viruses containing mutations in integrase (such as T66I, S153Y, M154I, or combinations thereof) (Hazuda et al., Science 2000, 287, 646–650), or patient samples. Starting from RNA, extracted from virus supernatant or plasma using the QIAamp® viral RNA extraction kit (Qiagen), cDNA was synthesized by reverse transcription (Expand™ reverse transcriptase, 30 min at 42° C.) with the primer 3′EGINT10 (SEQ ID NO 11), followed by a nested PCR. […]
(§2) Recombinant virus was produced by co-transfection by electroporation of the SmaI-linearized IN-deletion construct and the integrase amplicon into MT4 cells or MT4 cells equipped with an LTR driven reporter gene construct. Production of recombinant virus was evaluated by scoring the cytopathogenic effect (CPE) that is induced by HIV-infection of MT4 cells or by the LTR-driven reporter signal induced by HIV infection in MT4 reporter cells. […]

[2] = test system: recombinant virus generated from HXB2D site-directed mutant virus, integrase T66I mutation; assay: Antiviral experiment with recombinant virus from site-directed mutant virus, T66I; conditions: versus wild type, MT4-LTR-EGFP cells
Procedure: as §1, §2

[3] = test system: recombinant virus generated from HXB2D site-directed mutant virus, integrase T66I/M154I mutations; assay: Antiviral experiment with recombinant virus from site-directed mutant virus, T66I/M154I; conditions: versus wild type, MT4-LTR-EGFP cells
Procedure: as §1, §2

[4] = test system: recombinant virus generated from HXB2D site-directed mutant virus, integrase S153Y; assay: Antiviral experiment with recombinant virus from site-directed mutant virus, S153Y; conditions: S153Y mutation in integrase; versus wild type; MT4-LTR-EGFP cells
Procedure: as §1, §2

[5] = test system: recombinant virus generated from HXB2D site-directed mutant virus, integrase M154I mutation; assay: Antiviral experiment with recombinant virus from site-directed mutant virus, M154I; conditions: versus wild type, MT4-LTR-EGFP cells
Procedure: as §1, §2

## CC(C)Oc1ccc(Cc2ccccc2)cc1C(=O)CC(=O)C(=O)O [compound 4, 2-(1-methylethyloxy)-, -dioxo-5-(phenylmethyl)-benzenebutanoic acid]
[1]
  fold increase in EC50: 10 fold
[2]
  fold increase in EC50: 2 fold
[3]
  fold increase in EC50: 10 fold
[4]
  fold increase in EC50: 5 fold
[5]
  fold increase in EC50: 3 fold
